The source of these data is patent US9006440B2, “Furopyridine derivatives” (Merck Patent GmbH, priority 2010, dated 2015).

What all share (format): biochemical
The target of one experiment is T1, BTK (Homo sapiens, UniProt Q06187).
T1 construct: purchased Carna Bioscience, Kobe, Japan
The experiment is described as follows: BTK enzymatic assay (Caliper LifeSciences technology). The protocol:
(§1) The assays described here are performed on the Caliper Life Sciences LC3000 system This technology provides data on enzyme activity via measurement of the relative amounts of phosphorylated or unphosphorylated fluorescently labelled substrate peptide at the end of an enzymatic reaction. These different states of peptide are resolved by applying a potential difference across the sample. The presence of the charged phosphate group on the product (as opposed to the substrate) causes a different peptide mobility between the two peptides. This is visualized by excitation of the fluorescent label on the substrate and product peptides and represented as peaks within the analysis software.
(§2) In order to measure inhibitor activity of kinase inhibitors on this technology, a TTP Mosquito liquid handling instrument is used to place 0.25 ul of the appropriate concentration of inhibitor in 100% DMSO (for a dose response curve calculation) into each well of a 384-well plate. To this reaction components are added to a final volume of 25 ul. The table below indicates the sequences and concentrations for the assays described in this report. Standard components are 1 mM DTT (Sigma, D0632), 1 mM MgCl2 (Sigma, M1028), 100 mM HEPES pH 7.5 (Calbiochem, 391338), 0.015% Brij-35 (Sigma, B4184).
(§3) The reaction is incubated for 90 min at 25 C, and then stopped by the addition of 70 ul of Stop buffer (100 mM HEPES pH 7.5, 0.015% Brij-35, 10 mM EDTA (Sigma, E7889)).
(§4) The plate is read on a Caliper LC 3000 in an Off-Chip mobility shift assay format, on a 12-sipper chip. Unphosphorylated substrate and phosphorylated product peptide resolve as separate peaks allowing direct measurement of percentage of conversion of substrate to product. The percent conversion can be plotted against concentration of inhibitor to produce a sigmoidal dose response curve, from which an IC50 can be calculated using GeneData Condoseo or a similar product.

The target in the next experiment is T2, Syk (Homo sapiens, UniProt P43405).
T2 construct: purchased BPS Bioscience, CA, USA
The experiment is described as follows: Syk enzyme assay (SYK flash plate assay / Caliper mobility shift). In short, it runs like this:
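Flashplate format: 2.5 nM SYK, 400 nM biotinylated peptide, 10 μM ATP with 33P-ATP, pH 7.5, 1 h at 30 °C; radioactivity read, staurosporine background. Caliper format: 90 min at 25 °C, mobility-shift read of substrate-to-product conversion; IC50 from dose-response curve.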

The target in the next experiment is T3, SRC (Homo sapiens, UniProt P12931).
T3 construct: purchased Carna Bioscience, Kobe, Japan
T3 sequence (P12931 whole entry): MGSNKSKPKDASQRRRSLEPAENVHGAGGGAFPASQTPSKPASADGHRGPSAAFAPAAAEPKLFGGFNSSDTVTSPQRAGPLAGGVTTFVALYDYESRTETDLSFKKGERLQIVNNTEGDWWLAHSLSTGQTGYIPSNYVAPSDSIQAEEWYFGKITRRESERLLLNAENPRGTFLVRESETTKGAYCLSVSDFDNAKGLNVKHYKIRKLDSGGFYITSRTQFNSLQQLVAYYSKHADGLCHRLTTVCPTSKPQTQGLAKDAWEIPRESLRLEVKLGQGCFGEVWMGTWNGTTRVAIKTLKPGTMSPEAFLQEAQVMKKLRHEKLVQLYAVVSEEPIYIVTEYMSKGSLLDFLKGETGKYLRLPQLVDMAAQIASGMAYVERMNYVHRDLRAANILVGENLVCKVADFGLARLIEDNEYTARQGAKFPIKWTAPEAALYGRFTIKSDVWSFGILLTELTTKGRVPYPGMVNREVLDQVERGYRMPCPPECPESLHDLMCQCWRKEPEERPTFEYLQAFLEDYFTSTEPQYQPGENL
In words: Src enzymatic assay (Caliper LifeSciences technology). The method, then: as §1, §2, §3, §4

A further experiment concerns the target T4, KDR (Homo sapiens, UniProt P35968).
T4 construct: purchased BPS Bioscience, CA, USA
In words: KDR enzymatic assay (Caliper LifeSciences technology). An outline of the steps: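 Off-chip mobility-shift assay measuring conversion of a fluorescently labelled peptide substrate, in 100 mM HEPES pH 7.5, 1 mM DTT, 1 mM MgCl2 and 0.015% Brij-35. Reactions ran 90 min at 25 C and were stopped with EDTA. IC50s were derived from percent-conversion dose-response curves.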

T4 sequence (P35968 20-1356): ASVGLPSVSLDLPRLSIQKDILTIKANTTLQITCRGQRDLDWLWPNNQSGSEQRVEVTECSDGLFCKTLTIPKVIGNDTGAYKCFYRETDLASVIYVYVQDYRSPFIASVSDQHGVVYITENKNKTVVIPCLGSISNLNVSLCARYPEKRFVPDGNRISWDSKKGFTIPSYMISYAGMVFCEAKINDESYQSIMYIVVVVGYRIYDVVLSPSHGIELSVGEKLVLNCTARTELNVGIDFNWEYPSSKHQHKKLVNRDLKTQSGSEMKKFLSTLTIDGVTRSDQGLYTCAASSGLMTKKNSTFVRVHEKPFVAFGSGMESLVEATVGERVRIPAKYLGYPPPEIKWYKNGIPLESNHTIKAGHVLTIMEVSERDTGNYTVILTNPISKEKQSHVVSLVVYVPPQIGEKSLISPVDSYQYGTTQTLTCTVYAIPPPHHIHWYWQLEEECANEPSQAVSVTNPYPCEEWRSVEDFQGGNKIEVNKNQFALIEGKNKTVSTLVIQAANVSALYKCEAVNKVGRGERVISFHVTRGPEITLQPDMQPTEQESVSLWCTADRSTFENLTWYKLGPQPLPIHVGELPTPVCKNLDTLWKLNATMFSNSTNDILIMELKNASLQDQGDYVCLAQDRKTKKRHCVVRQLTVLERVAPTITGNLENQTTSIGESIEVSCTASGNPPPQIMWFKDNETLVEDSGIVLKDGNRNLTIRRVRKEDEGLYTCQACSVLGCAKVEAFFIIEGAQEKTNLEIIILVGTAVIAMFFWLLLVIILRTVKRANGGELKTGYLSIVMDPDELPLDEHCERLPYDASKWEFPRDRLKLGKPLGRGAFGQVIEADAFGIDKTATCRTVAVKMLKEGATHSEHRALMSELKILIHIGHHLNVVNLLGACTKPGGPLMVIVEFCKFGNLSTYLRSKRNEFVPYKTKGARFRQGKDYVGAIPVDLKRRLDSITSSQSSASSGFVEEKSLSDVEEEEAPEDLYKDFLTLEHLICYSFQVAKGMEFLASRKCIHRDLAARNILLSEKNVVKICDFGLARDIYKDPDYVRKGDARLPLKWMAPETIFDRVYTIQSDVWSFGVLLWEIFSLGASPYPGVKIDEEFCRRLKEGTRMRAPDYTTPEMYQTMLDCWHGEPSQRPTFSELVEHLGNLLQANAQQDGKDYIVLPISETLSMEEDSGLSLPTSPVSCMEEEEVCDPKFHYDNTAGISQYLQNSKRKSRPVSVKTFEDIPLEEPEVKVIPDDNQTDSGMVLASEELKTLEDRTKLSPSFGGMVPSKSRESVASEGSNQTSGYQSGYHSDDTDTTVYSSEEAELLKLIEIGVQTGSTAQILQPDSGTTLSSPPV
T1 sequence (Q06187 whole entry): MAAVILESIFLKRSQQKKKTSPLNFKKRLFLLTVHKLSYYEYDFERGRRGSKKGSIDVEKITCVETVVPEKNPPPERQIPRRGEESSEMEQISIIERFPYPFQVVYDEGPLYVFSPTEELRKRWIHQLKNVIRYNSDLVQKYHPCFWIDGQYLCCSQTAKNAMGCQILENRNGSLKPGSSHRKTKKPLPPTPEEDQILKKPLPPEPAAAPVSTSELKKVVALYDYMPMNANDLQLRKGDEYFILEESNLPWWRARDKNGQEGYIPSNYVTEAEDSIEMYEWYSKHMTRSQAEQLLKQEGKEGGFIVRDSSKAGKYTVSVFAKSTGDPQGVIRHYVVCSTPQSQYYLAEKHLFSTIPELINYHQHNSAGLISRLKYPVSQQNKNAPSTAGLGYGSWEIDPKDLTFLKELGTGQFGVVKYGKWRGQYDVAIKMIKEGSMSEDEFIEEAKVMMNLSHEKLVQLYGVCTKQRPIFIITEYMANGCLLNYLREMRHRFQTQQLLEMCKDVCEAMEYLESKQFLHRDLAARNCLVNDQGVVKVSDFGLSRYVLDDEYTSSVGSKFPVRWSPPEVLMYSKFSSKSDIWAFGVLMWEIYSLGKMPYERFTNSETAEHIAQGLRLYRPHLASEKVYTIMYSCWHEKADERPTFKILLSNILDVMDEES

As usually defined, the IC50 is the concentration that inhibits the measured activity by half. The compound `C=CC(=O)Nc1cccc(-c2cc3nccc(Oc4ccc5ncccc5c4)c3o2)c1` [Compound D10, N-{3-[7-(Quinolin-6-yloxy)-furo[3,2-b]pyridin-2-yl]-phenyl}-acrylamide] had a half-inhibitory concentration (IC50) at BTK of 3 to 50 µM.
The same measure, in the same setting: under `O=C(CCl)Nc1cccc(Oc2ccnc3cc(-c4ccccc4)oc23)c1` [Compound D20, 2-Chloro-N-[3-(2-phenyl-furo[3,2-b]pyridin-7-yloxy)-phenyl]-acetamide] stands less than 0.3 µM; under `CCC(=O)Nc1cccc(-c2cc3nccc(Oc4ccccc4)c3o2)c1` [Compound D8, N-[3-(7-Phenoxy-furo[3,2-b]pyridin-2-yl)-phenyl]-propionamide], 3 to 50 µM; under `C=CC(=O)Nc1cccc(Oc2ccnc3cc(-c4ccccc4)oc23)c1` [Compound D19, N-[3-(2-Phenyl-furo[3,2-b]pyridin-7-yloxy)-phenyl]-acrylamide], 0.3 to 3 µM.
As to `CNC(=O)c1ccccc1Nc1ccnc2cc(-c3cc(OC)c(OC)c(OC)c3)oc12` [Compound B8, N-Methyl-2-[2-(3,4,5-trimethoxy-phenyl)-furo[3,2-b]pyridin-7-ylamino]-benzamide], the half-inhibitory concentration (IC50) on Syk, against BTK and against SRC was 0.3 to 3 µM in each case.
In turn, `O=C(CCl)Nc1ccc(Oc2ccnc3cc(-c4ccccc4)oc23)cc1` [Compound D23, 2-Chloro-N-[4-(2-phenyl-furo[3,2-b]pyridin-7-yloxy)-phenyl]-acetamide] registered an IC50 against BTK of less than 0.3 µM.
On the same count and under the same terms, as for `CCC(=O)Nc1cccc(Oc2ccnc3cc(-c4ccccc4)oc23)c1` [Compound D21, N-[3-(2-Phenyl-furo[3,2-b]pyridin-7-yloxy)-phenyl]-propionamide], the figure is 3 to 50 µM.
Take `Cn1cc(-c2ccnc3cc(-c4ccc5nc[nH]c5c4)oc23)cn1` [Compound C123]: the concentration for half-maximal inhibition (IC50) on Syk is less than 0.3 µM; at BTK, 3 to 50 µM; on KDR it was 0.3 to 3 µM.
At BTK, `C=CC(=O)NCc1ccc(-c2ccnc3cc(-c4ccccc4)oc23)cc1` [Compound D25, N-[4-(2-Phenyl-furo[3,2-b]pyridin-7-yl)-benzyl]-acrylamide] displayed an IC50 of 0.3 to 3 µM.
`C=CC(=O)Nc1ccc(Oc2ccnc3cc(-c4ccccc4)oc23)cc1` [Compound D22, N-[4-(2-Phenyl-furo[3,2-b]pyridin-7-yloxy)-phenyl]-acrylamide] had an IC50 on BTK of 0.3 to 3 µM.
For the compound `CCC(=O)Nc1cccc(Oc2ccnc3cc(C)oc23)c1` [Compound D28, N-[3-(2-Methyl-furo[3,2-b]pyridin-7-yloxy)-phenyl]-propionamide], the 50% inhibitory concentration (IC50) against BTK fell in the range of 3 to 50 µM.
Same read-out and setting: as for `C=CC(=O)NCc1cccc(-c2cc3nccc(-c4ccccc4)c3o2)c1` [Compound D15, N-[3-(7-Phenyl-furo[3,2-b]pyridin-2-yl)-benzyl]-acrylamide], the figure is 0.3 to 3 µM; as for `C=CC(=O)NCc1cccc(-c2cc3nccc(Oc4ccc(Oc5ccccc5)cc4)c3o2)c1` [Compound D4, N-{3-[7-(4-Phenoxy-phenoxy)-furo[3,2-b]pyridin-2-yl]-benzyl}-acrylamide], less than 0.3 µM.
For the compound `OCc1ccc(-c2cc3nccc(-c4ccc(CO)cc4)c3o2)cc1` [Compound B44, {4-[2-(4-Hydroxymethyl-phenyl)-furo[3,2-b]pyridin-7-yl]-phenyl}-methanol], the IC50 on Syk was 0.3 to 3 µM; against BTK it was 3 to 50 µM; on KDR it was less than 0.3 µM.
The compound `C=CC(=O)Nc1cccc(-c2cc3nccc(Oc4ccc(Cl)cc4)c3o2)c1` [Compound D11, N-{3-[7-(4-Chloro-phenoxy)-furo[3,2-b]pyridin-2-yl]-phenyl}-acrylamide] registered a half-inhibitory concentration (IC50) against BTK of 0.3 to 3 µM.
At BTK, `Cc1cc2nccc(Oc3cccc(NC(=O)CCl)c3)c2o1` [Compound D27, 2-Chloro-N-[3-(2-methyl-furo[3,2-b]pyridin-7-yloxy)-phenyl]-acetamide] displayed a 50% inhibitory concentration (IC50) of less than 0.3 µM.
`CCC(=O)Nc1ccc(Oc2ccnc3cc(-c4ccccc4)oc23)cc1` [Compound D24, N-[4-(2-Phenyl-furo[3,2-b]pyridin-7-yloxy)-phenyl]-propionamide]: the IC50 on BTK was 3 to 50 µM.
For `CCC(=O)Nc1cccc(-c2cc3nccc(-c4ccccc4)c3o2)c1` [Compound D14, N-[3-(7-Phenyl-furo[3,2-b]pyridin-2-yl)-phenyl]-propionamide], the IC50 against BTK lay in the range of 3 to 50 µM.
`C=CC(=O)Nc1cccc(-c2cc3nccc(Oc4cccc(Cl)c4)c3o2)c1` [Compound D9, N-{3-[7-(3-Chloro-phenoxy)-furo[3,2-b]pyridin-2-yl]-phenyl}-acrylamide] displayed an IC50 against BTK of 3 to 50 µM.
The compound `O=C(CCl)NCc1cccc(-c2cc3nccc(-c4ccccc4)c3o2)c1` [Compound D16, 2-Chloro-N-[3-(7-phenyl-furo[3,2-b]pyridin-2-yl)-benzyl]-acetamide] returned a concentration for half-maximal inhibition (IC50) at BTK of 0.3 to 3 µM.
Turning to `CCC(=O)Nc1cccc(-c2ccnc3cc(C)oc23)c1` [Compound D29, N-[3-(2-Methyl-furo[3,2-b]pyridin-7-yl)-phenyl]-propionamide], at BTK, the half-inhibitory concentration (IC50) was in the range of 3 to 50 µM.
Consider `Nc1cccc(-c2cc3nccc(Oc4ccc(Oc5ccccc5)cc4)c3o2)c1` [Compound B79, 3-[7-(4-Phenoxyphenoxy)furo[3,2-b]pyridin-2-yl]aniline], for which the values for the concentration for half-maximal inhibition (IC50) at Syk and against BTK were 3 to 50 µM and 0.3 to 3 µM, respectively.
Turning to `COc1cccc(-c2cc3nccc(Nc4ccc5[nH]ccc5c4C)c3o2)c1OC` [Compound B59, [2-(2,3-Dimethoxy-phenyl)-furo[3,2-b]pyridin-7-yl]-(4-methyl-1H-indol-5-yl)-amine], the 50% inhibitory concentration (IC50) on Syk is 0.3 to 3 µM; at KDR it was less than 0.3 µM; against SRC, less than 0.3 µM.
On to `COc1cc(-c2cc3nccc(-c4cccc(CN)c4)c3o2)cc(OC)c1OC` [Compound A51, 3-[2-(3,4,5-Trimethoxy-phenyl)-furo[3,2-b]pyridin-7-yl]-benzylamine], for which the figures for the IC50 on Syk, against KDR and against SRC were less than 0.3 µM, 0.3 to 3 µM and 3 to 50 µM, respectively.
For the compound `COc1cc(-c2cc3nccc(-c4cc(OC(C)C)cc(C(=O)O)c4)c3o2)cc(OC)c1OC` [Compound C155], the half-maximal inhibitory concentration (IC50) at Syk is less than 0.3 µM; on KDR, 0.3 to 3 µM; on SRC it was 0.3 to 3 µM.
Consider `Cc1c(Nc2ccnc3cc(-c4ccc(OCCCN(C)C)cc4)oc23)ccc2[nH]ccc12` [Compound B58, {2-[4-(3-Dimethylamino-propoxy)-phenyl]-furo[3,2-b]pyridin-7-yl}-(4-methyl-1H-indo-5-yl)-amine], for which the half-maximal inhibitory concentration (IC50) on Syk is 0.3 to 3 µM; against KDR, less than 0.3 µM; against SRC it was less than 0.3 µM.
